The values below come from patent publication US8809352B2, “Sulfonamides as inhibitors of Bcl-2 family proteins for the treatments of cancer” (Novartis AG, priority 2009, dated 2014).

Structures are written as SMILES. pIC50: −log10 of the molar value.

The target in the test is BCL2 (Homo sapiens, UniProt P10415). Briefly: Biacore SPR solution inhibition assay of BCL-2 binding to peptide derivatized sensor surfaces. Conditions: SPR competition; 56 nM BCL2 pre-equilibrated with compound one hour; biotinylated BAK, BAD and NOXA peptide surfaces; 25° C. The method in brief: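 Solution-competition SPR at 25 °C in HEPES pH 7.4 buffer with 1.25 mM DTT and 3% DMSO: compounds (6-point threefold series, 16 μM to 0.004 nM) pre-equilibrated 1 h with 56 nM BCL2, then injected over captured biotinylated BAK, BAD and NOXA peptide surfaces. Binding levels relative to BCL2-only controls gave % inhibition.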
Chain of BCL2 (P10415 whole entry): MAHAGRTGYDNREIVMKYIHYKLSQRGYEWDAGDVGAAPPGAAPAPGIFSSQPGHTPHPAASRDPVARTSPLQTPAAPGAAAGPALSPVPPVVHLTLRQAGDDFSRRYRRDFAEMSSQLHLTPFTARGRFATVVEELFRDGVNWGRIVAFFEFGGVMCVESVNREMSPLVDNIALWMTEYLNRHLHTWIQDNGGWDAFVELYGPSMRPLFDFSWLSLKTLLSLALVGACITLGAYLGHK
Turning to `O=S(=O)(Nc1ncnc2c1CCN(C1CCN(Cc3ccccc3-c3ccc(Cl)cc3)CC1)C2)c1ccc(N[C@H](CCN2CCOCC2)CSc2ccccc2)c(S(=O)(=O)C(F)(F)F)c1` [Example 9, (R)-N-(7-(1((4′-chlorobiphenyl-2-yl)methyl)piperidin-4-yl)-5,6,7,8-tetrahydropyrido[3,4-d]pyrimidin-4-yl)-4-(4-morpholino-1-(phenylthio)butan-2-ylamino)-3-(trifluoromethylsulfonyl)benzenesulfonamide], the negative logarithm of the IC50 (pIC50) was 6.84.

On to `CN(C)CC[C@H](CSc1ccccc1)Nc1ccc(S(=O)(=O)Nc2ncnc3c2CCN(C2CCN(CC4=C(c5ccc(Cl)cc5)CC(C)(C)CC4)CC2)C3)cc1S(=O)(=O)C(F)(F)F` [Example 17, (R)-N-(7-(1-((2-(4-chlorophenyl)-4,4-dimethylcyclohex-1-enyl)methyl)piperidin-4-yl)-5,6,7,8-tetrahydropyrido[3,4-d]pyrimidin-4-yl)-4-(4-(dimethylamino)-1-(phenylthio)butan-2-ylamino)-3-(trifluoromethylsulfonyl)benzenesulfonamide], for which the pIC50 is 7.66.

Regarding `CN(C)CC[C@H](CSc1ccccc1)Nc1ccc(S(=O)(=O)Nc2ncnc3c2CCN(C2CCN(Cc4ccccc4-c4ccc(Cl)cc4)CC2)C3)cc1C#N` [Example 54, (R)-N-(7-(1-((4′-chlorobiphenyl-2-yl)methyl)piperidin-4-yl)-5,6,7,8-tetrahydropyrido[3,4-d]pyrimidin-4-yl)-3-cyano-4-(4-(dimethylamino)-1-(phenylthio)butan-2-ylamino)benzenesulfonamide], the negative-log IC50 (pIC50) was 6.76.

In the case of `CN1CCN(CC[C@H](CSc2ccccc2F)Nc2ccc(S(=O)(=O)Nc3ncnc4c3CCN(C3CCN(Cc5ccccc5-c5ccc(Cl)cc5)CC3)C4)cc2S(=O)(=O)C(F)(F)F)CC1` [Example 56, (R)-N-(7-(1-((4′-chlorobiphenyl-2-yl)methyl)piperidin-4-yl)-5,6,7,8-tetrahydropyrido[3,4-d]pyrimidin-4-yl)-4-(1-(2-fluorophenylthio)-4-(4-methylpiperazin-1-yl)butan-2-ylamino)-3-(trifluoromethylsulfonyl)benzenesulfonamide], the negative-log IC50 (pIC50) was 7.57. Then `[2H]C1(N2CCc3c(ncnc3NS(=O)(=O)c3ccc(N[C@H](CCN(C)C)CSc4ccccc4)c(S(=O)(=O)C(F)(F)F)c3)C2)CCN(Cc2cc(F)ccc2-c2ccc(Cl)cc2)CC1` [Example 73, (R)-N-(7-(1-((4′-chloro-4-fluorobiphenyl-2-yl)methyl)-4-deuteropiperidin-4-yl)-5,6,7,8-tetrahydropyrido[3,4-d]pyrimidin-4-yl)-4-(4-(dimethylamino)-1-(phenylthio)butan-2-ylamino)-3-(trifluoromethylsulfonyl)benzene sulfonamide], with 7.59; and `CN(C)CC[C@H](CSc1ccccc1Cl)Nc1ccc(S(=O)(=O)Nc2ncnc3c2CCN(C2CCN(CC4=C(c5ccc(Cl)cc5)CC(C)(C)CC4)CC2)C3)cc1S(=O)(=O)C(F)(F)F` [Example 28, (R)-N-(7-(1((2-(4-chlorophenyl)-4,4-dimethylcyclohex-1-enyl)methyl)piperidin-4-yl)-5,6,7,8-tetrahydropyrido[3,4-d]pyrimidin-4-yl)-4-(1-(2-chlorophenylthio)-4-(dimethylamino)butan-2-ylamino)-3-(trifluoromethylsulfonyl)benzenesulfonamide], with 7.36. Take `[2H]C1(N2CCc3c(ncnc3NS(=O)(=O)c3ccc(N[C@H](CCN4CCCC4)CSc4ccccc4)c(S(=O)(=O)C(F)(F)F)c3)C2)CCN(Cc2cc(F)ccc2-c2ccc(Cl)cc2)CC1` [Example 82, (R)-N-(7-(1-((4′-chloro-4 fluorobiphenyl-2-yl)methyl)-4-dueteropiperidin-4-yl)-5,6,7,8-tetrahydropyrido[3,4-d]pyrimidin-4-yl)-4-(1-(phenylthio)-4-(pyrrolidin-1-yl)butan-2-ylamino)-3-(trifluoromethylsulfonyl) benzene sulfonamide]: the negative-log IC50 (pIC50) is 6.96. Take `CN(C)CC[C@H](CSc1ccccc1)Nc1ccc(S(=O)(=O)Nc2nc(C(F)(F)F)nc3c2CCN(C2CCN(Cc4ccccc4-c4ccc(Cl)cc4)CC2)C3)cc1S(=O)(=O)C(F)(F)F` [Example 67, (R)-N-(7-(1((4′-chlorobiphenyl-2-yl)methyl)piperidin-4-yl)-2-(trifluoromethyl)-5,6,7,8-tetrahydropyrido[3,4-d]pyrimidin-4-yl)-4-(4-(dimethylamino)-1-(phenylthio)butan-2-ylamino)-3-(trifluoramethylsulfonyl)benzenesulfonamide]: the negative logarithm of the IC50 (pIC50) was 7.38. Then `CC(c1ccccc1-c1ccc(Cl)cc1)N1CCC(N2CCc3c(ncnc3NS(=O)(=O)c3ccc(N[C@H](CCN4CCOCC4)CSc4ccccc4)c(S(=O)(=O)C(F)(F)F)c3)C2)CC1` (stereo partly drawn) [Example 42, N-(7-(1-(1-(4′chlorobiphenyl-2-yl)ethyl)piperidin-4-yl)-5,6,7,8-tetrahydropyrido[3,4-d]pyrimidin-4-yl)-4-((R)-4-morpholino-1-(phenylthio)butan-2-ylamino)-3-(trifluoromethylsulfonyl)benzenesulfonamide], with 7.01. On to `CN(C)CC[C@H](CSc1ccccc1)Nc1ccc(S(=O)(=O)Nc2ncnc3c2CCN(C2CCN(Cc4ccccc4-c4ccc(F)cc4)CC2)C3)cc1S(=O)(=O)C(F)(F)F` [Example 5, (R)-4-(4-(dimethylamino)-1-(phenylthio)butan-2-ylamino)-N-(7-(1-((4′-fluorobiphenyl-2-yl)methyl)piperidin-4-yl)-5,6,7,8-tetrahydropyrido[3,4-d]pyrimidin-4-yl)-3-(trifluoromethylsulfonyl)benzenesulfonamide], for which the negative logarithm of the IC50 (pIC50) was 7.60.

Consider `CN(C)CC[C@H](CSc1ccccc1)Nc1ccc(S(=O)(=O)Nc2ncnc3c2CCN(C2CCN(CC4=C(c5ccc(Cl)cc5)CCC(C)(C)C4)CC2)C3)cc1S(=O)(=O)C(F)(F)F` [Example 10, (R)-N-(7-(1-((2-(4-chlorophenyl)-5,5-dimethylcyclohex-1-enyl)methyl)piperidin-4-yl)-5,6,7,8-tetrahydropyrido[3,4-d]pyrimidin-4-yl)-4-(4-(dimethylamino)-1-(phenylthio)butan-2-ylamino)-3-(trifluoromethylsulfonyl)benzenesulfonamide], for which the pIC50 was 7.51. Then `CN(C)CC[C@H](CSc1ccccc1)Nc1ccc(S(=O)(=O)Nc2ncnc3c2CCN(C2CCC(O)(Cc4ccccc4-c4ccc(Cl)cc4)CC2)C3)cc1S(=O)(=O)C(F)(F)F` (mixture of isomers) [Example 64, (R)-N-(7-(4-((4′-chlorobiphenyl-2-yl)methyl)-4-hydroxycyclohexyl)-5,6,7,8-tetrahydropyrido[3,4-d]pyrimidin-4-yl)-4-(4-(dimethylamino)-1-(phenylthio)butan-2-ylamino)-3-(trifluoromethylsulfonyl)benzenesulfonamide], with 7.15; and `O=S(=O)(Nc1nnc2n1CCN(C1CCN(Cc3ccccc3-c3ccc(Cl)cc3)CC1)CC2)c1ccc(N[C@H](CCN2CCOCC2)CSc2ccccc2)c(S(=O)(=O)C(F)(F)F)c1` [Example 92, N-{6-[1-(4′-Chloro-biphenyl-2-ylmethyl)-piperidin-4-yl]-5,6,7,8-tetrahydro-4H-1,2,3a,6-tetraaza-azulen-3-yl}-4-((R)-3-morpholin-4-yl-1-phenylsulfanylmethyl-propylamino)-3-trifluoromethanesulfonyl-benzenesulfonamide], with 6.71.
